Experimental data taken from US20220073536A1 (Rigel Pharmaceuticals, Inc., priority 2003, published 2022).
Like-named read-outs stand apart in the source and are kept apart here.

Legend:
[1] = tested on: cultured human mast cells (CHMC); experiment: CHMC low cell density IgE activation: tryptase assay; format: cell-based; details: IgE activation
Summary of the method: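 CHMC were seeded at 1000–1500 cells/well in MT buffer and incubated 1 hr at 37 °C. They were then stimulated with anti-IgE for 30 min at 37 °C, with unstimulated wells as controls. Released tryptase in the supernatant was measured with a fluorogenic substrate after 30 min at room temperature.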

Syk kinase = target: T1, Syk kinase (Homo sapiens, UniProt P43405); experiment: Syk kinase biochemical fluorescence polarization assay; details: read-out: fp_syk, 11 pt
T1 construct: purchased Upstate, Lake Placid N.Y
Method: Many of the 2,4-pyrimidinediamine compounds were tested for the ability to inhibit Syk kinase catalyzed phosphorylation of a peptide substrate in a biochemical fluorescenced polarization assay with isolated Syk kinase. In this experiment, Compounds were diluted to 1% DMSO in kinase buffer (20 mM HEPES, pH 7.4, 5 mM MgCl2, 2 mM MnCl2, 1 mM DTT, 0.1 mg/mL acetylated Bovine Gamma Globulin). Compound in 1% DMSO (0.2% DMSO final) was mixed with ATP/substrate solution at room temperature. Syk kinase (Upstate, Lake Placid N.Y.) was added to a final reaction volume of 20 uL, and the reaction was incubated for 30 minutes at room temperature. […] EDTA (10 mM final)/anti-phosphotyrosine antibody (1× final)/fluorescent phosphopeptide tracer (0.5× final) was added in FP Dilution Buffer to stop the reaction for a total volume of 40 uL according to manufacturer's instructions (PanVera Corporation) The plate was incubated for 30 minutes in the dark at room temperature. Plates were read on a Polarion fluorescence polarization plate reader (Tecan). Data were converted to amount of phosphopeptide present using a calibration curve generated by competition with the phosphopeptide competitor provided in the Tyrosine Kinase Assay Kit, Green (PanVera Corporation).

[2] = tested on: cultured human mast cells (CHMC); experiment: CHMC low cell density ionomycin activation: tryptase assay; format: cell-based; details: read-out: LD Tryptase, CHMC, Iono, 3 pt
[3] = Homo sapiens, Mast cell, low cell density CHMC, tryptase, 3 pt, read-out: LD Tryptase, CHMC, IgE, 3 pt
[4] = Homo sapiens, Mast cell, low cell density CHMC, tryptase, 8 pt, read-out: LD Tryptase, CHMC, IgE, 8 pt
[5] = low cell density, 3 pt, read-out: LD Tryptase, CHMC, IgE, 3 pt
[6] = low cell density, 8 pt, read-out: LD Tryptase, CHMC, IgE, 8 pt
[7] = Homo sapiens, Mast cell, low cell density CHMC, tryptase release, 8 pt, read-out: LD Tryptase, CHMC, IgE, 8 pt
[8] = Homo sapiens, Mast cell, low cell density CHMC, tryptase, 3 pt
[9] = low cell density CHMC, tryptase, 3 pt, read-out: LD Tryptase, CHMC, IgE, 3 pt
[10] = low cell density CHMC, tryptase, 8 pt, read-out: LD Tryptase, CHMC, IgE, 8 pt
[11] = low cell density CHMC, tryptase, 3 pt

**Q.** Which IC50 [1, 3] does the source give for `CNC(=O)c1cc2cccc(Nc3ncc(F)c(Nc4cc(OC)cc(OC)c4)n3)c2[nH]1` [Compound 368, N4-(3,5-Dimethoxyphenyl)-5-fluoro-N2-[2-(N-methylamino)carbonylindol-7-yl]-2,4-pyrimidinediamine] here?
**A.** < 10 µM

**Q.** What about the IC50 (Syk kinase; isolated Syk kinase, 11 pt) of the same compound?
**A.** < 10 µM

**Q.** Which results are given for `COc1cc(Nc2nc(Nc3cccc4cc(C(=O)N(C)CCO)[nH]c34)ncc2F)cc(OC)c1` [Compound 384]?
**A.** IC50 [1, 3]: < 10 µM; IC50 [1, 4]: < 10 µM; IC50 (Syk kinase; isolated Syk kinase, 11 pt): < 10 µM

**Q.** Which results are given for `COc1ccc(Nc2nc(Nc3cccc(-c4nnc(C(C)(C)C)o4)c3)ncc2F)cc1OC` [Compound 530, N2-[ (2-tert-Butyl-1,3,4-oxadiazol-5-yl)phenyl]-N4-(3,4-dimethoxyphenyl)-5-fluoro-2,4-pyrimidinediamine]?
**A.** IC50 [1, 5]: < 10 µM; IC50 [1, 6]: < 10 µM; IC50 (Syk kinase; 11 pt): < 10 µM

**Q.** For `CNC(=O)COc1ccc(Nc2nc(Nc3ccc4c(ccn4CC(=O)NC)c3)ncc2F)cc1Cl` [Compound 652, N4-[3-Chloro-4-(N-methylamino)carbonylmethyleneoxyphenyl]-5-fluoro-N2-[1-(N-methylamino)carbonylmethyleneindol-5-yl]-2,4-pyrimidinediamine], which IC50 ([1]; Homo sapiens, Mast cell, low cell density CHMC, tryptase release, 8 point, read-out: LD Tryptase, CHMC, IgE, 8 pt) is on record?
**A.** < 10 µM

**Q.** And the IC50 (Syk kinase; isolated Syk kinase, 11 point)?
**A.** < 10 µM

**Q.** Which results are given for `COc1ccc(Nc2nc(Nc3ccc4c(c3)c(N)nn4C)ncc2F)cc1Cl` [Compound 804, N2-(3-Amino-1-methylindazol-5-yl)-N4-(3-chloro-4-methoxyphenyl)-5-fluoro-2,4-pyrimidinediamine]?
**A.** IC50 [1, 7]: < 10 µM; IC50 (Syk kinase; isolated Syk kinase, 11 pt): < 10 µM

**Q.** What does the source list for `C[C@@H]1Oc2ccc(Nc3nc(Nc4ccc5c(c4)c(N)nn5C)ncc3F)cc2NC1=O` [Compound 807, (S)-N2-(3-Amino-1-methylindazol-5-yl)-5-fluoro-N4-(2-methyl-3-oxo-4H-benz[1,4]oxazin-6-yl)-2,4-pyrimidinediamine]?
**A.** IC50 [1, 7]: < 10 µM; IC50 (Syk kinase; isolated Syk kinase, 11 pt): < 10 µM

**Q.** How did the IC50 [1, 7] turn out when `COc1ccc(Nc2nc(Nc3ccc4c(cnn4CCCNC(C)=O)c3)ncc2F)cc1Cl` [Compound 819, N2-[1-[3-(N-Acetylamino)propyl]indazol-5-yl]-N4-(3-chloro-4-methoxyphenyl)-5-fluoro-2,4-pyrimidinediamine] was run?
**A.** < 10 µM

**Q.** And the IC50 (Syk kinase; isolated Syk kinase, 11 pt)?
**A.** < 10 µM

**Q.** Which results are given for `Cn1c(N2CCOCC2)nc2cc(Nc3ncc(F)c(Nc4ccc(Cl)c(Cl)c4)n3)ccc21` [Compound 942, N4-(3,4-Dichlorophenyl)-5-fluoro-N2-[1-methyl-2-(4-morpholino)benzimidazol-5-yl]-2,4-pyrimidinediamine]?
**A.** IC50 [1, 5]: < 10 µM; IC50 [1, 6]: < 10 µM; IC50 (Syk kinase; 11 pt): < 10 µM

**Q.** With `COc1ccc(Nc2nc(Nc3ccc4c(c3)nc(N3CCOCC3)n4C)ncc2F)cc1Cl` [Compound 943, N4-(3-Chloro-4-methoxyphenyl)-5-fluoro-N2-[1-methyl-2-(4-morpholino)benzimidazol-5-yl]-2,4-pyrimidinediamine] as the compound, how does the IC50 ([1]; Homo sapiens, Mast cell, low cell density, 3 pt, read-out: LD Tryptase, CHMC, IgE, 3 pt) read?
**A.** < 10 µM

**Q.** And the IC50 (Syk kinase; 11 pt)?
**A.** < 10 µM

**Q.** For `COC(=O)CCNC(=O)c1ccc(Nc2ncc(F)c(Nc3ccc4c(c3)NC(=O)[C@H](C)O4)n2)cc1` [Compound 1303, (S)-5-Fluoro-N2-[4-[N-(2-methoxycarbonylethyl)aminocarbonyl]phenyl]-N4-(2-methyl-3-oxo-2H,4H-benz[1,4]oxazin-6-yl)-2,4-pyrimidinediamine], which IC50 [1, 3] is on record?
**A.** < 10 µM

**Q.** What about the IC50 [1, 4] of the same compound?
**A.** < 10 µM

**Q.** What about the IC50 [2, 8] of the same compound?
**A.** > 10 µM

**Q.** What does the source list for `COC(=O)CCNC(=O)c1ccc(Nc2ncc(F)c(Nc3ccc4c(c3)NC(=O)C(F)(F)O4)n2)cc1` [Compound 1304]?
**A.** IC50 [1, 3]: < 10 µM; IC50 [1, 4]: < 10 µM; IC50 [2, 8]: > 10 µM

**Q.** Which IC50 [1, 3] does the source give for `COC(=O)CCNC(=O)c1ccc(Nc2ncc(F)c(Nc3ccc(Cl)c(Cl)c3)n2)cc1` [Compound 1305] here?
**A.** < 10 µM

**Q.** What about the IC50 [1, 4] of the same compound?
**A.** < 10 µM

**Q.** What about the IC50 [2, 8] of the same compound?
**A.** < 10 µM

**Q.** Which IC50 [1, 3] does the source give for `COC(=O)CCNC(=O)c1ccc(Nc2ncc(F)c(N(C)c3ccc(Cl)c(Cl)c3)n2)cc1` [Compound 1306] here?
**A.** < 10 µM

**Q.** And the IC50 [1, 4]?
**A.** < 10 µM

**Q.** And the IC50 [2, 8]?
**A.** > 10 µM

**Q.** With `CC(C)(C)OC(=O)NCC(=O)NCc1ccc(Nc2ncc(F)c(Nc3ccc4c(c3)NC(=O)C(C)(C)O4)n2)cc1` [Compound 1307, N2-[4-[1-(tert-Butoxycarbonylamino)methylenecarbonylamino]methylphenyl]-N4-(2,2-dimethyl-3-oxo-4H-benz[1,4]oxazin-6-yl)-5-fluoro-2,4-pyrimidinediamine] as the compound, how does the IC50 [1, 9] read?
**A.** < 10 µM

**Q.** What about the IC50 [1, 10] of the same compound?
**A.** < 10 µM

**Q.** And the IC50 [2, 11]?
**A.** < 10 µM

**Q.** Which results are given for `C[C@@H]1Oc2ccc(Nc3nc(Nc4ccc(CNC(=O)CNC(=O)OC(C)(C)C)cc4)ncc3F)cc2NC1=O` [Compound 1308, (S)-N2-[4-[1-(tert-Butoxycarbonylamino)methylenecarbonylamino]methylphenyl]-5-fluoro-N4-(2-methyl-3-oxo-2H,4H-benz[1,4]oxazin-6-yl)-2,4-pyrimidinediamine]?
**A.** IC50 [1, 9]: < 10 µM; IC50 [1, 10]: < 10 µM; IC50 [2, 11]: < 10 µM

**Q.** `CC(C)(C)OC(=O)NCC(=O)NCc1ccc(Nc2ncc(F)c(Nc3ccc4c(c3)NC(=O)C(F)(F)O4)n2)cc1` [Compound 1309, N2-[4-[1-(tert-Butoxycarbonylamino)methylenecarbonylamino]methylphenyl]-N4-(2,2-difluoro-3-oxo-4H-benz[1,4]oxazin-6-yl)-5-fluoro-2,4-pyrimidinediamine] was tested. Which IC50 [1, 9] did it give?
**A.** < 10 µM

**Q.** What about the IC50 [1, 10] of the same compound?
**A.** < 10 µM

**Q.** What about the IC50 [2, 11] of the same compound?
**A.** > 10 µM

**Q.** Which IC50 [1, 9] does the source give for `CC(C)(C)OC(=O)NCC(=O)NCc1ccc(Nc2ncc(F)c(Nc3ccc(Cl)c(Cl)c3)n2)cc1` [Compound 1310, N2-[4-[1-(tert-Butoxycarbonylamino)methylenecarbonylamino]methylphenyl]-N4-(3,4-dichlorophenyl)-5-fluoro-2,4-pyrimidinediamine] here?
**A.** < 10 µM

**Q.** What about the IC50 [1, 10] of the same compound?
**A.** < 10 µM

**Q.** And the IC50 [2, 11]?
**A.** < 10 µM

**Q.** For “(R)-5-Fluoro-N2-[4- (N-methoxycarbonylmethyleneamino)carbonylphenyl]-N4- (2-methyl-3-oxo-2H,4H-benz[1,4]oxazin-6-yl)-2,4-pyrimidinediamine [Compound 1272]”, which IC50 [1, 10] is on record?
**A.** < 10 µM

**Q.** What about the IC50 [2, 11] of the same compound?
**A.** > 10 µM

**Q.** For “(S)-5-Fluoro-N2-[4- (N-methoxycarbonylmethyleneamino)carbonylphenyl]-N4- (2-methyl-3-oxo-2H,4H-benz[1,4]oxazin-6-yl)-2,4-pyrimidinediamine [Compound 1271]”, which IC50 [1, 10] is on record?
**A.** < 10 µM

**Q.** And the IC50 [2, 11]?
**A.** > 10 µM

**Q.** For “N2- (3-Chloro-4-methoxyphenyl)-N4- (2,2-dimethyl-3-oxo-4H-benz[1,4]oxazin-6-yl)-5-fluoro-N4-methyl-2,4-pyrimidinediamine [Compound 394]”, which IC50 [1, 9] is on record?
**A.** < 10 µM

**Q.** What about the IC50 [2, 11] of the same compound?
**A.** < 10 µM

**Q.** What does the source list for “N2- (Bis-2-hydroxyethyl)-N4- (3,4-ethylenedioxyphenyl)-5-fluoro-N4-methyl-2,4-pyrimidinediamine [Compound 492]”?
**A.** IC50 [1, 5]: > 10 µM; IC50 ([2]; low cell density, 3 pt): > 10 µM

**Q.** “N2-[4-[1- (tert-Butoxycarbonylamino)methylenecarbonylamino]methylphenyl]-N4- (3,4-dichlorophenyl)-5-fluoro-N4-methyl-2,4-pyrimidinediamine [Compound 1311]” was tested. Which IC50 [1, 9] did it give?
**A.** < 10 µM

**Q.** And the IC50 [2, 11]?
**A.** > 10 µM

**Q.** “N4- (2,2-Difluoro-3-oxo-4H-benz[1,4]oxazin-6-yl)-5-fluoro-N2-[4-[N- (N-methylamino)carbonylmethylene]aminocarbonylphenyl]-2,4-pyrimidinediamine [Compound 1297]” was tested. Which IC50 [1, 9] did it give?
**A.** < 10 µM

**Q.** What about the IC50 [2, 11] of the same compound?
**A.** > 10 µM

**Q.** Which IC50 [1, 9] does the source give for “N4- (2,2-Dimethyl-3-oxo-4H-benz[1,4]oxazin-6-yl)-5-fluoro-N2-(1-methylindazol-6-yl)-2,4-pyrimidinediamine p-Hydroxybenzenesulfonic Acid Salt [Compound 768]” here?
**A.** < 10 µM

**Q.** What about the IC50 [1, 10] of the same compound?
**A.** < 10 µM

**Q.** What about the IC50 [2, 11] of the same compound?
**A.** > 10 µM

**Q.** “N4- (4-Chloro-3-methoxyphenyl)-5-fluoro-N2-[1-(methoxycarbonylmethylene)indol-5-yl]-2,4-pyrimidinediamine [Compound 645]” was tested. Which IC50 ([1]; low cell density CHMC, tryptase release, 3 point, read-out: LD Tryptase, CHMC, IgE, 3 pt) did it give?
**A.** < 10 µM

**Q.** And the IC50 ([1]; low cell density CHMC, tryptase release, 8 point, read-out: LD Tryptase, CHMC, IgE, 8 pt)?
**A.** < 10 µM

**Q.** What about the IC50 ([2]; low cell density CHMC, tryptase release, 3 point) of the same compound?
**A.** > 10 µM
